The subject of one experiment is S. typhimurium C52. Put plainly: Splenic colonization of C57Bl/6 mice infected orally with S. typhimurium C52. It is filed as in vivo. How it is done:
The 5-6-week-old female C57Bl/6 mice used in the context of this experiment originated from the IFFA-CREDO breeding centre (LArbresle, France).
(§1) They were infected orally in the following way. The Salmonella strains were cultured in TCS broth for 18 hours at 37° C. with shaking (200 rpm). This culture was then adjusted to […] (in the stationary growth phase, 1 OD600 =1.5 ×10^9 bacteria/ml), and then the number of viable bacteria was controlled by counting on TCS agar.
(§2) On the day of infection (DO), the drinking-water bottles of the mice were replaced with bottles containing 100 ml of drinking water to which the required number of bacteria had been added.
(§3) After infection for 24 hours ([…]), the bottles containing the contaminated drinking water were replaced with bottles containing uncontaminated drinking water.
(§4) Seven days after infection (D+7), the spleens of the mice infected in this way were removed and homogenized separately in 1 ml of physiological saline containing 0.7% of NaCl.
(§5) The number of viable bacteria per spleen was determined by plating out dilutions of the homogenate, onto TCS agar.
The effect of the composition of the drinking water on the splenic colonization by Salmonella was estimated using the Student's t test.
The S. typhimurium strain C52 was used to infect C57Bl/6 mice orally.
On this figure, the number of viable bacteria is given as the mean (log10) of the values ± the standard deviation. […]

The subject of another experiment is S. typhi strain Ty2. Put plainly: Mobility by the U-tube culturing technique. Particulars: U tube supplemented with 5 mM. It is filed as cell-based. On the procedure: The mobility of each strain was studied using the U-tube culturing technique (Popoff and Le Minor, Guide pour la preparation des serum anti-Salmonella (Guide for preparing salmonella antisera], 1997). When necessary, the culture media were supplemented with chloramphenicol (Cm) at 15 μg/ml.

Experiment [1] deals with enteropathogenic and enterotoxigenic E. coli. Particulars: 1.25 g/l; cited from earlier work.
The test system of experiment [2] is Gram-positive or Gram-negative bacteria. Particulars: 7.8 mM, in vitro; cited from earlier work.
Another experiment has as its system Salmonellae. Put plainly: Bactericidal or bacteriostatic effect on the Salmonellae at neutral pH. The class given is cell-based, Salmonella.
For another experiment, the system named is Vibrio cholerae. Particulars: 1.25 g/l; cited from earlier work.
Experiment [3] relates to sipB′-lacZ fusion (S. typhi strain Ty277). As to the kind of experiment: β-galactosidase activity of the sipB′-lacZ fusion in favourable LB medium. The class given is cell-based. On the procedure: The favourable LB medium (high osmolarity and concentration of Ca^2+ions) was defined as being the standard LB medium modified so as to have a final NaCl concentration of 300 mM and a final Ca concentration of 5 mM.
(§6) Each of the strains described above was cultured at 37° C. on agar or in TCS broth. The P-galactosidase activity was determined using 4-methyl-umbelliferyl-p-D-galactopyranoside sold by the company Sigma, according to the technique of Klarsfeld et al. (Mol. Mibrobiol., 1994, 13, 585-597). The results, expressed in P-galactosidase units (fluorescence per hour and per OD600), represent the mean of the values obtained in at least three independent experiments. The standard deviations were less than 10% of the values presented.
For this, the S. typhi strains Ty267, Ty272 and Ty277, which carry the iagA′-lacZ, invF′-lacZ and sipB′-lacZ fusions, respectively, (see Table I), were cultured in the favourable LB or unfavourable LB medium.
The action of these two compounds on the expression of the iagA′-lacZ, invF′-lacZ and sipB′-lacZ fusions was studied by measuring the β-galactosidase activity expressed by these fusions as a function of the time of culturing (samples removed every two hours).

Experiment [4] concerns iagA′-lacZ fusion (S. typhi strain Ty267). As to the kind of experiment: β-galactosidase activity of the iagA′-lacZ fusion in favourable LB medium. It is filed as cell-based.
In another experiment the test system is S. enteritidis LA5. Put plainly: Splenic colonization of C57Bl/6 mice infected orally with S. enteritidis LA5. The class given is in vivo. As to conditions: 50 mM in drinking water pH 7.2-7.3; 10^7 bacteria per animal orally; distilled water 7.5 ± 0.3. How it is done: as §1, §2, §3, §4, §5
The S. dublin strain 5917 (Coynault & Norel, Microb. Pathog., 1999, 26, 299-305) and S. enteritidis strain LAS (Thorns et al., Microb. Pathog., 1996, 20, 235-246) were used to infect C57B1/6 mice orally at the dose of 10^7 bacteria per animal.

In experiment [5] the test system is Gram-positive or Gram-negative microorganisms. As to conditions: acid pH (free acid form); cited from earlier work.
Experiment [6] has as its system iagA′-lacZcat fusion in S. typhi strain Ty267. As to the kind of experiment: "Biotype 100" plate screen for carbon-based substrates that repress the iagA′-lacZcat fusion (β-galactosidase activity). As to conditions: "Biotype 100" cupule, amount of substrate not known; favourable LB medium; 36 hours at 37° C.; control cupule without substrate 11 250. The class given is cell-based. How it is done: as §6
A “Biotype 100”® plate sold by the company BioMerieux is composed of 100 microcupules. Each micro-cupule contains a dehydrated carbon-based substrate, with the exception of the first cupule, which is a control without substrate (the amount of dehydrated substrate per cupule is not given by the manufacturer).
In the context of the present example, these plates were used to search for carbon-based compounds which would block the expression of the invasion genes in Salmonella.
For this, the S. typhi strain Ty267, which is a derivative of the parental strain Ty2 carrying the iagA′-lacZcat transcriptional fusion (Table I), was cultured in TCS broth for 18 hours at 37° C. with shaking (200 rpm).
This culture was then diluted 100-fold in favourable LB medium (0.6 ml of culture for 60 ml of favourable LB), and then this suspension was used immediately to seed the 100 cupules of a “Biotype 100”® plate, in a proportion of 450 μl of suspension per cupule.
After incubation for 36 hours in an incubator at 37° C., the activity of the iagA′-lacZcat fusion in the Ty267 strain was determined for the culture of each cupule.
By comparing the value of the P-galactosidase activity measured in a cupule containing a carbon-based substrate with that of the control cupule without substrate, it was possible to investigate whether a substrate had no effect on, activated or repressed the expression of the iagA′-lacZcat fusion.
The S. typhi strain Ty267 (iagA′-lacZ fusion), suspended in the favourable LB medium, was used to seed the “Biotype 100”® plates.
The β-galactosidase activity expressed by the iagA′-lacZ fusion was determined for the culture in each cupule. With respect to the β-galactosidase activity measured in the control cupule without substrate (11 250 β-galactosidase units), no substrate caused an increase in the expression of the iagA′-lacZ fusion.

The next experiment has as its system Shigella sonnei. Particulars: 1.25 g/l; cited from earlier work.
The mark [7] stands for this setting: concentration greater than or equal to 2.5 mM, favourable LB medium.

For `CCCCCCCC(=O)[O-].[Na+]` [sodium caprylate], the “Number of viable bacteria in the spleen (mean log10)” value in the experiment on S. typhimurium C52 (5 mM in drinking water, infectious dose 5 × 10^7 bacteria) turned out to be 6.9 ± 0.5 log10; in the experiment on S. typhimurium C52 (5 mM in drinking water, infectious dose 10^7 bacteria), 6.8 ± 0.2 log10; in the experiment on S. typhimurium C52 (10 mM in drinking water, infectious dose 5 × 10^7 bacteria) it was 6.5 ± 0.4 log10; with S. typhimurium C52 (10 mM in drinking water, infectious dose 10^7 bacteria) it was 6.5 ± 1.4 log10; in the experiment with S. typhimurium C52 (50 mM in drinking water, infectious dose 10^7 bacteria, distilled water 7.2 ± 0.3) it was 2.3 ± 0.4 log10. Also, the “factor of decrease of the bacterial load in the spleen” value in the experiment with S. typhimurium C52 (50 mM in drinking water from two days before infection, 5 × 10^7 bacteria, seventh day of infection) was “approximately 1 000”. Besides, the “protective effect (in words)” value in the experiment on S. typhimurium C52 (5 or 10 mM in the drinking water, whatever the infectious dose) was “no longer has a significant protective effect”. For the same compound, the “mobility of the Ty2 strain” value in the experiment with S. typhi strain Ty2 was “same mobility”. Moreover, the “bactericidal activity in vitro on enteropathogenic and enterotoxigenic E. coli” value in experiment [1] is listed as “no bactericidal activity”. For the same compound, the “bacteriostatic or bactericidal effect on Gram-positive or Gram-negative bacteria” value in experiment [2] is “no bacteriostatic or bactericidal effect”. Further, the “bactericidal or bacteriostatic effect on the Salmonellae” value in the experiment with Salmonellae is “none of these compounds has any significant bactericidal or bacteriostatic effect”. In the experiment on Vibrio cholerae, the “bactericidal activity in vitro on Vibrio cholerae” value is on record as “no bactericidal activity”. In experiment [3] (1 mM in favourable LB medium), the “β-galactosidase activity expressed by the sipB′-lacZ fusion as % of that in favourable LB medium without the substance” value is on record as approximately 20%. For the same compound, the “expression of the sipB gene (sipB′-lacZ fusion)” value in experiment [3] (setting [7]) is “very strongly represses”. In addition, in [4] (1 mM in favourable LB medium), the “β-galactosidase activity expressed by the iagA′-lacZ fusion as % of that in favourable LB medium without the substance” value is given as approximately 20%. Also, in experiment [4] (setting [7]), the “expression of the iagA gene (iagA′-lacZ fusion)” value is “very strongly represses”. Also, the “Number of viable bacteria in the spleen (mean in log10)” value with S. enteritidis LA5 was 3.7 ± 0.4 log10. The “bactericidal activity on a great variety of Gram-positive or Gram-negative microorganisms” value in experiment [5] is reported as “bactericidal activity”. Moreover, in experiment [6], the “β-galactosidase activity expressed by the iagA′-lacZ fusion in the cupule” value is 47 β-galactosidase units. For the same compound, the “bactericidal activity in vitro on Shigella sonnei” value with Shigella sonnei was “no bactericidal activity”.

The record behind these values is patent publication US20040116523A1, “Use of c4-c10 acids for preventing gram-negative bacterial infections” (priority 2000, published 2004).
